Measured values as given in PubChem BioAssay AID2060496 (Molecular Pharmacology Branch, DTP, NCI, 2025).

System: 276233-004-R-J1-PDC complex spheroid viability
Assay: Anticancer human tumor 276233-004-R-J1-PDC patient-derived colon adenocarcinoma cell line growth inhibition [GQUAD]
Conditions: for IC50: curve of first compound; for viability, T/C: stronger effect = lower value
Excerpt: DNA G-quadruplex Stabilizer Agents in Combinations in Complex Spheroids
A high-throughput screen of multi-cell type tumor spheroids was designed to identify active combinations of DNA G-quadruplex stabilizer agents and targeted small molecules. Complex spheroids include a stromal component modeled by human endothelial cells (HUVEC) and fibroblasts modeled by human mesenchymal stem cells (MSCs). The concentration ranges selected for each drug and investigational agent were based upon clinically achievable concentrations if the clinical Cmax of the agent was known.
Compounds. The drugs and investigational agents: pidnarulex (CX-5461; NSC782164), APTO-253 (NSC789042), BRACO-19 (NSC847499), peposertib (NSC802822), ceralasertib (NSC780249), elimusertib (NSC800525), camonsertib (NSC841442), AZD-1390 (NSC803789), olaparib (NSC753686), talazoparib (NSC767125), ART-558 (NSC835418), sotorasib (NSC818433), MRTX-1133 (NSC836407), SN-38 (NSC673596), topotecan (NSC609699), etoposide (NSC141540), doxorubicin (NSC123127), gemcitabine (NSC613327), 5-fluorouracil (NSC19893), paclitaxel (NSC125973), vemurafenib (NSC761431), panobinostat (NSC761190), R-306465 (JNJ-16241199; NSC773264), adavosertib (NSC754352), TP-3654 (NSC805149), carboplatin (NSC241240), KSQ-4279 (NSC840948), and staurosporine (NSC755774) were obtained from the National Cancer Institute (NCI) Developmental Therapeutics Program Chemical Repository (34). The FDA-approved anticancer drug set is available from the NCI Developmental Therapeutics Program. […] The stock solutions were prepared in dimethyl sulfoxide (DMSO, Sigma-Aldrich, St. Louis, MO, cat. D2650) at 800-fold the tested concentration and stored at -70 degrees C prior to their use. All drugs and investigational agents were tested over a range starting from a high concentration at or near the clinical Cmax and decreasing in half-log increments. If the clinical Cmax for an agent had not been determined, the highest concentration tested was 10 microM.
2.3 Cell Culture. All cells were maintained in an incubator at 37 degrees C and 5% CO2 with 95% humidity. The PDC lines were cultured according to standard operating procedures established by the NCI PDMR. All PDCs were thawed and cultured in Matrigel-coated flasks prepared with a working solution of 1X Ham's F-12 nutrient mix, without supplementation (Invitrogen, cat. 11765054), 100 U/mL penicillin-streptomycin (Invitrogen, cat. 15140122), and 2.5% Matrigel (Corning Inc., cat. 354248) for the first three passages. The 857933-349-R-J2-PDC line was cultured in 6C/Colon 1B media, which includes advanced DMEM/F-12 (Thermo Fisher Scientific, cat. 12634028), 10 mM HEPES (Thermo Fisher Scientific, cat. 15630080), 1X GlutaMAX supplement (Thermo Fisher Scientific, cat. 35050061), 0.1 mg/mL primocin (InvivoGen, cat. ant-pm-2), 10% defined fetal bovine serum, heat inactivated (HyClone Laboratories Inc., cat. SH30070.03HI), 50% L-WRN conditioned media (ATCC, cat. CRL-3276), 1.25 mM N-Acetyl-L-cysteine (Sigma-Aldrich, cat. A9165), 10 mM nicotinamide (Sigma-Aldrich, cat. N0636), 1X B-27 supplement (Thermo Fisher Scientific, cat. 17504044), 1X N-2 supplement (Thermo Fisher Scientific, cat. 17502048), 10 microM Y-27632 dihydrochloride (Tocris Bioscience, cat. 1254), and 50 ng/mL human EGF recombinant protein (Thermo Fisher Scientific, cat. PHG0311). The 485176-168-R4-J1-PDC line was cultured in Panc media, which includes all 6C/Colon 1B media components plus 100 ng/mL human FGF-10 (Thermo Fisher Scientific, cat. 100-26), 500 nM SB-431542 (Selleckchem, cat. S1067), and gastrin (Tocris, cat. 3006).
[…]

[1] = second compound 0.0316 µM, first compound 0.0316 µM
[2] = second compound 0.0316 µM, first compound 0.1 µM
[3] = second compound 0.0316 µM, first compound 0.316 µM
[4] = second compound 0.0316 µM, first compound 1 µM
[5] = second compound 0.0316 µM, first compound 3.16 µM
[6] = second compound 0.0316 µM, first compound 10 µM
[7] = second compound 0.1 µM, first compound 0.0316 µM
[8] = second compound 0.1 µM, first compound 0.1 µM
[9] = second compound 0.1 µM, first compound 0.316 µM
[10] = second compound 0.1 µM, first compound 1 µM
[11] = second compound 0.1 µM, first compound 3.16 µM
[12] = second compound 0.1 µM, first compound 10 µM
[13] = second compound 0.316 µM, first compound 0.0316 µM
[14] = second compound 0.316 µM, first compound 0.1 µM
[15] = second compound 0.316 µM, first compound 0.316 µM
[16] = second compound 0.316 µM, first compound 1 µM
[17] = second compound 0.316 µM, first compound 3.16 µM
[18] = second compound 0.316 µM, first compound 10 µM
[19] = second compound 1 µM, first compound 0.0316 µM
[20] = second compound 1 µM, first compound 0.1 µM
[21] = second compound 1 µM, first compound 0.316 µM
[22] = second compound 1 µM, first compound 1 µM
[23] = second compound 1 µM, first compound 3.16 µM
[24] = second compound 1 µM, first compound 10 µM
[25] = second compound 3.16 µM, first compound 0.0316 µM
[26] = second compound 3.16 µM, first compound 0.1 µM
[27] = second compound 3.16 µM, first compound 0.316 µM
[28] = second compound 3.16 µM, first compound 1 µM
[29] = second compound 3.16 µM, first compound 3.16 µM
[30] = second compound 3.16 µM, first compound 10 µM
[31] = second compound 10 µM, first compound 0.0316 µM
[32] = second compound 10 µM, first compound 0.1 µM
[33] = second compound 10 µM, first compound 0.316 µM
[34] = second compound 10 µM, first compound 1 µM
[35] = second compound 10 µM, first compound 3.16 µM
[36] = second compound 10 µM, first compound 10 µM
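Note: spheroids exposed to drugs for seven days.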
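Throughout, for viability, T/C: 100% = DMSO vehicle control viability.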

**Q.** Which IC50 (second compound 0.0316 µM) does the source give for `CC1COCCN1c1cc(-c2ccnn2C)c2ccnc(-c3ccn[nH]3)c2n1` (centres undefined) + CN(C)c1ccc(Nc2c3ccc(NC(=O)CCN4CCCC4)cc3nc3cc(NC(=O)CCN4CCCC4)ccc23)cc1 here?
**A.** 7140 nM

**Q.** What about the IC50 (second compound 0.1 µM) of the same compound?
**A.** 6120 nM

**Q.** What about the IC50 (second compound 0.316 µM) of the same compound?
**A.** 513 nM

**Q.** And the IC50 (second compound 1 µM)?
**A.** 109 nM

**Q.** What about the IC50 (second compound 3.16 µM) of the same compound?
**A.** 145 nM

**Q.** And the IC50 (second compound 10 µM)?
**A.** < 31.6 nM

**Q.** And the viability, T/C [1]?
**A.** 83.7%

**Q.** And the viability, T/C [2]?
**A.** 77.8%

**Q.** What about the viability, T/C [3] of the same compound?
**A.** 74.8%

**Q.** And the viability, T/C [4]?
**A.** 73.1%

**Q.** And the viability, T/C [5]?
**A.** 55%

**Q.** And the viability, T/C [6]?
**A.** 47.9%

**Q.** What about the viability, T/C [7] of the same compound?
**A.** 80.4%

**Q.** What about the viability, T/C [8] of the same compound?
**A.** 70%

**Q.** What about the viability, T/C [9] of the same compound?
**A.** 76.6%

**Q.** And the viability, T/C [10]?
**A.** 69.9%

**Q.** And the viability, T/C [11]?
**A.** 56.3%

**Q.** What about the viability, T/C [12] of the same compound?
**A.** 44.1%

**Q.** What about the viability, T/C [13] of the same compound?
**A.** 77.9%

**Q.** And the viability, T/C [14]?
**A.** 61.6%

**Q.** What about the viability, T/C [15] of the same compound?
**A.** 51.6%

**Q.** What about the viability, T/C [16] of the same compound?
**A.** 52.5%

**Q.** And the viability, T/C [17]?
**A.** 35.3%

**Q.** And the viability, T/C [18]?
**A.** 40.3%

**Q.** What about the viability, T/C [19] of the same compound?
**A.** 52.9%

**Q.** And the viability, T/C [20]?
**A.** 54.1%

**Q.** What about the viability, T/C [21] of the same compound?
**A.** 44.7%

**Q.** And the viability, T/C [22]?
**A.** 40.5%

**Q.** What about the viability, T/C [23] of the same compound?
**A.** 38.2%

**Q.** And the viability, T/C [24]?
**A.** 34.4%

**Q.** And the viability, T/C [25]?
**A.** 58.5%

**Q.** What about the viability, T/C [26] of the same compound?
**A.** 56%

**Q.** And the viability, T/C [27]?
**A.** 42.6%

**Q.** What about the viability, T/C [28] of the same compound?
**A.** 40.5%

**Q.** What about the viability, T/C [29] of the same compound?
**A.** 40.4%

**Q.** And the viability, T/C [30]?
**A.** 35.5%

**Q.** What about the viability, T/C [31] of the same compound?
**A.** 46.2%

**Q.** And the viability, T/C [32]?
**A.** 40.1%

**Q.** And the viability, T/C [33]?
**A.** 33.8%

**Q.** And the viability, T/C [34]?
**A.** 32.6%

**Q.** What about the viability, T/C [35] of the same compound?
**A.** 39.8%

**Q.** And the viability, T/C [36]?
**A.** 27.8%

**Q.** Which IC50 (second compound 0.0316 µM) does the source give for `CC1COCCN1c1cc(C2(O)CC3CCC(C2)O3)c2cnn(-c3ccn[nH]3)c2n1` (centres undefined) + CN(C)c1ccc(Nc2c3ccc(NC(=O)CCN4CCCC4)cc3nc3cc(NC(=O)CCN4CCCC4)ccc23)cc1 here?
**A.** 2840 nM

**Q.** What about the IC50 (second compound 0.1 µM) of the same compound?
**A.** 2410 nM

**Q.** What about the IC50 (second compound 0.316 µM) of the same compound?
**A.** 341 nM

**Q.** What about the IC50 (second compound 1 µM) of the same compound?
**A.** 555 nM

**Q.** What about the IC50 (second compound 3.16 µM) of the same compound?
**A.** 90.9 nM

**Q.** And the IC50 (second compound 10 µM)?
**A.** 43.4 nM

**Q.** What about the viability, T/C [1] of the same compound?
**A.** 74.7%

**Q.** And the viability, T/C [2]?
**A.** 80.9%

**Q.** And the viability, T/C [3]?
**A.** 72.7%

**Q.** What about the viability, T/C [4] of the same compound?
**A.** 69%

**Q.** What about the viability, T/C [5] of the same compound?
**A.** 47.7%

**Q.** What about the viability, T/C [6] of the same compound?
**A.** 47.2%

**Q.** And the viability, T/C [7]?
**A.** 77.4%

**Q.** What about the viability, T/C [8] of the same compound?
**A.** 89.3%

**Q.** And the viability, T/C [9]?
**A.** 75%

**Q.** What about the viability, T/C [10] of the same compound?
**A.** 60.8%

**Q.** What about the viability, T/C [11] of the same compound?
**A.** 45.2%

**Q.** And the viability, T/C [12]?
**A.** 46%

**Q.** And the viability, T/C [13]?
**A.** 64.9%

**Q.** And the viability, T/C [14]?
**A.** 50.3%

**Q.** And the viability, T/C [15]?
**A.** 50.4%

**Q.** What about the viability, T/C [16] of the same compound?
**A.** 41.9%

**Q.** What about the viability, T/C [17] of the same compound?
**A.** 50.8%

**Q.** What about the viability, T/C [18] of the same compound?
**A.** 28.8%

**Q.** What about the viability, T/C [19] of the same compound?
**A.** 55.5%

**Q.** And the viability, T/C [20]?
**A.** 51.1%

**Q.** And the viability, T/C [21]?
**A.** 50.1%

**Q.** What about the viability, T/C [22] of the same compound?
**A.** 47.2%

**Q.** What about the viability, T/C [23] of the same compound?
**A.** 43.7%

**Q.** And the viability, T/C [24]?
**A.** 27.6%

**Q.** What about the viability, T/C [25] of the same compound?
**A.** 57.6%

**Q.** And the viability, T/C [26]?
**A.** 39.4%

**Q.** What about the viability, T/C [27] of the same compound?
**A.** 52.8%

**Q.** What about the viability, T/C [28] of the same compound?
**A.** 37.8%

**Q.** And the viability, T/C [29]?
**A.** 39.5%

**Q.** And the viability, T/C [30]?
**A.** 27.3%

**Q.** And the viability, T/C [31]?
**A.** 53.5%

**Q.** And the viability, T/C [32]?
**A.** 42.1%

**Q.** And the viability, T/C [33]?
**A.** 37.6%

**Q.** And the viability, T/C [34]?
**A.** 37.4%

**Q.** And the viability, T/C [35]?
**A.** 29.3%

**Q.** What about the viability, T/C [36] of the same compound?
**A.** 25.4%
